“Also recorded” adds a separate entry of the source. Square brackets hold non-standard residues; d marks the D form. Ends that are not written are not given here. pGlu = O=C1CC[C@@H](C(=O)O)N1
Test system: panelists
Test: Increased salt perception protocol: salt 5 reference (0.35% salt solution) re-tasted after expectoration of test sample
Assay type: in vivo, human
Conditions: for Astringent, after-expectoration perception / Bitter, after-expectoration perception / Flinty/Mineral, after-expectoration perception / Metallic, after-expectoration perception / Numbing, after-expectoration perception / Salt, after-expectoration perception (mean salt perception after expectoration) / Sour, after-expectoration perception / Sweet, after-expectoration perception: salt 5 reference re-tasted, mean score; for Level of the aromatics, basic tastes and chemical feeling factors after expectoration with increasing concentration / Salt perception from in-mouth to after expectoration: 0.1 to 40.0/50.0 ppb; for Salt perception after expectoration as the concentration increases: 0.1 to 40.0/50.0 ppb in 0.2% NaCl; for Umami like swelling of lips and tongue, after expectoration: all levels; for Salt perception from in-mouth to after expectoration: all samples
From the text: 1. Each panelist tasted a salt reference (0.35% salt solution) with a reference salt intensity of 5.0 which provided a baseline for each panelist for salt intensity. 2. Each panelist tasted a test sample (0.1 ppb, 0.5 ppb, 1.0 ppb, 10.0 ppb or 40.0 ppb all in 0.2% NaCl solution). Only one sample was tasted per session. 3. Each panelist re-tasted the salt reference (5.0 intensity) and rated it for salt intensity as well as any other basic taste, chemical feeling factor, or aromatic perceived. Thus, any increased salt perception as a result of the test sample would be determined, as well as any other perceptions present. Attribute Perception Protocol • The panelists evaluated each sample using the following procedure • Descriptive Profiles (flavor and chemical feeling factors) of 5 levels of salt enhancing solutions • Individual data was collected for the flavor and chemical feeling factors of the product in-mouth • Increased Salt Perception Protocol • Each panelist tasted salt 5 reference (0.35% salt solution)—to ground themselves on salt intensity of 5.0. • Each panelist tasted the test sample (0.1 ppb, 0.5 ppb, 1.0 ppb, 10.0 ppb or 40.0/50.0 ppb all in 0.2% NaCl solution: only one per session) • Each panelist then re-tasted the salt 5 reference and rated it for salt intensity as well as any other basic taste, chemical feeling factor, or aromatic perceived. This captured any increased salt perception indicated by the test sample as well as any other perceptions present. • Return to Baseline Protocol • After evaluating the sample for salt & other perceptions, panelists re-tasted the salt 5 reference at 1 minute intervals until their perception of the salt 5 saltiness intensity had returned to 5.0. Each panelist recorded their salt intensity at each interval and took qualitative notes on other perceptions seen in aftertaste. Sample Preparation

## [pGlu]-Val-Leu [SE-13]
0.1 ppb in 0.2% NaCl
  Astringent, after-expectoration perception: 0.0
  Bitter, after-expectoration perception: 0.1
  Flinty/Mineral, after-expectoration perception: 0.1
  Metallic, after-expectoration perception: 0.3
  Numbing, after-expectoration perception: 0.0
  Salt, after-expectoration perception (mean salt perception after expectoration): 6.8
  Sour, after-expectoration perception: 0.0
  Sweet, after-expectoration perception: 0.0
  Level of the aromatics, basic tastes and chemical feeling factors after expectoration with increasing concentration: do not increase
  Salt perception after expectoration as the concentration increases: increases slightly; also recorded: slight increase
  Umami like swelling of lips and tongue, after expectoration: Panelists also experience Umami like swelling of lips and tongue
  Salt perception from in-mouth to after expectoration: increases after expectoration in all samples; also recorded: noticeable increase
Listed as pGlu-Val-Leu
  Salt perception after expectoration as the concentration increases: increased slightly
  Salt perception from in-mouth to after expectoration: increased after expectoration in all samples
0.5 ppb in 0.2% NaCl
  Astringent, after-expectoration perception: 0.0
  Bitter, after-expectoration perception: 0.0
  Flinty/Mineral, after-expectoration perception: 0.1
  Metallic, after-expectoration perception: 0.3
  Numbing, after-expectoration perception: 0.1
  Salt, after-expectoration perception (mean salt perception after expectoration): 6.4
  Sour, after-expectoration perception: 0.0
  Sweet, after-expectoration perception: 0.0
1.0 ppb in 0.2% NaCl
  Astringent, after-expectoration perception: 0.0
  Bitter, after-expectoration perception: 0.0
  Flinty/Mineral, after-expectoration perception: 0.2
  Metallic, after-expectoration perception: 0.1
  Numbing, after-expectoration perception: 0.0
  Salt, after-expectoration perception (mean salt perception after expectoration): 7.5
  Sour, after-expectoration perception: 0.0
  Sweet, after-expectoration perception: 0.0
10.0 ppb in 0.2% NaCl
  Astringent, after-expectoration perception: 0.0
  Bitter, after-expectoration perception: 0.0
  Flinty/Mineral, after-expectoration perception: 0.1
  Metallic, after-expectoration perception: 0.3
  Numbing, after-expectoration perception: 0.0
  Salt, after-expectoration perception (mean salt perception after expectoration): 8.2
  Sour, after-expectoration perception: 0.0
  Sweet, after-expectoration perception: 0.0
40.0 ppb in 0.2% NaCl
  Astringent, after-expectoration perception: 0.0
  Bitter, after-expectoration perception: 0.0
  Flinty/Mineral, after-expectoration perception: 0.3
  Metallic, after-expectoration perception: 0.2
  Numbing, after-expectoration perception: 0.0
  Salt, after-expectoration perception (mean salt perception after expectoration): 8.3
  Sour, after-expectoration perception: 0.0
  Sweet, after-expectoration perception: 0.0

## [pGlu]-Val-Val [SE-17]
0.1 ppb in 0.2% NaCl
  Astringent, after-expectoration perception: 0.0
  Bitter, after-expectoration perception: 0.0
  Flinty/Mineral, after-expectoration perception: 0.6
  Metallic, after-expectoration perception: 0.0
  Numbing, after-expectoration perception: 0.0
  Salt, after-expectoration perception (mean salt perception after expectoration): 7.3
  Sour, after-expectoration perception: 0.0
  Sweet, after-expectoration perception: 0.0
  Level of the aromatics, basic tastes and chemical feeling factors after expectoration with increasing concentration: do not increase
  Salt perception after expectoration as the concentration increases: does not increase notably; also recorded: Does not show a notable increase
  Umami like swelling of lips and tongue, after expectoration: Panelists also experience Umami like swelling of lips and tongue
  Salt perception from in-mouth to after expectoration: increases after expectoration (from in-mouth) in all samples; also recorded: noticeable increase
0.5 ppb in 0.2% NaCl
  Astringent, after-expectoration perception: 0.0
  Bitter, after-expectoration perception: 0.0
  Flinty/Mineral, after-expectoration perception: 0.7
  Metallic, after-expectoration perception: 0.2
  Numbing, after-expectoration perception: 0.0
  Salt, after-expectoration perception (mean salt perception after expectoration): 8.1
  Sour, after-expectoration perception: 0.0
  Sweet, after-expectoration perception: 0.0
1.0 ppb in 0.2% NaCl
  Astringent, after-expectoration perception: 0.0
  Bitter, after-expectoration perception: 0.0
  Flinty/Mineral, after-expectoration perception: 0.5
  Metallic, after-expectoration perception: 0.0
  Numbing, after-expectoration perception: 0.0
  Salt, after-expectoration perception (mean salt perception after expectoration): 7.3
  Sour, after-expectoration perception: 0.0
  Sweet, after-expectoration perception: 0.0
10.0 ppb in 0.2% NaCl
  Astringent, after-expectoration perception: 0.0
  Bitter, after-expectoration perception: 0.0
  Flinty/Mineral, after-expectoration perception: 0.3
  Metallic, after-expectoration perception: 0.0
  Numbing, after-expectoration perception: 0.0
  Salt, after-expectoration perception (mean salt perception after expectoration): 7.2
  Sour, after-expectoration perception: 0.0
  Sweet, after-expectoration perception: 0.0
50.0 ppb in 0.2% NaCl
  Astringent, after-expectoration perception: 0.0
  Bitter, after-expectoration perception: 0.0
  Flinty/Mineral, after-expectoration perception: 0.4
  Metallic, after-expectoration perception: 0.0
  Numbing, after-expectoration perception: 0.0
  Salt, after-expectoration perception (mean salt perception after expectoration): 7.7
  Sour, after-expectoration perception: 0.0
  Sweet, after-expectoration perception: 0.0
